In ChEMBL document CHEMBL3637782, “GSK Tres Cantos Follow-up TB Screening Data” (2016):
Converted amounts (≈) assume the structure as drawn.

Columns and labels:
[1] = test system: Mycobacterium tuberculosis H37Rv; assay: GSK_TB: Minimum inhibitory concentration against H37Rv stain of Mycobacterium tuberculosis using MABA method; assay type: functional; conditions: ATCC25618
[2] = test system: Mycobacterium tuberculosis H37Rv; assay: GSK_TB: Inhibition of the intracellular growth of Mycobacterium tuberculosis (pXC50); assay type: functional, ATCC25618
HepG2 = assay: GSK_TB: The cytotoxicity against HepG2 cells expressed as IC50; assay type: functional, cell-based; conditions: Homo sapiens
[3] = GSK_TB: Kinetic solubility of the compound in phosphate buffered saline at pH 7.4 after 1 hr by CLND method; assay type: physicochemical
[4] = GSK_TB: Lipophilicity, log D of the compound at pH 7.4 by ChromlogD analysis; assay type: physicochemical; conditions: buffer
[5] = GSK_TB: AVG_CHROM_LOGP; assay type: physicochemical
[6] = test system: Mycobacterium tuberculosis H37Rv; assay: GSK_TB: Growth inhibition of non-replicating Mycobacterium tuberculosis (pXC50); assay type: functional, ATCC25618

SMILES | MIC [1] [µM] | pXC50 [2] | IC50 (HepG2) [µM] | solubility kinetic at 1 h [3] [µg/mL] | Lipophilicity [4] | Lipophilicity [5] | pXC50 [6]
COc1ccc(Nc2nc(N[C@@H]3CCNC3)nc3cc[nH]c(=O)c23)cc1NC(=O)c1ccccc1 | 5 (≈ 2.36 µg/mL) | 5.5 | 25 | 106 (≈ 226 µM) | 2.41 | 3.1698 | –
c1ccc(-c2ncc(-c3ccc(OCCCn4ccnc4)cc3)s2)cc1 | 5 (≈ 1.81 µg/mL) | 5.3 | 25 | 3 (≈ 8.3 µM) | 6.42 | 6.7437 | –
COc1ccc(Nc2ncccc2N)cc1 | 5.6 (≈ 1.21 µg/mL) | 6.2 | 63 | 18 (≈ 83.6 µM) | 1.45 | 1.44 | –
Fc1ccc(Cc2nnc(-c3ccnc(Nc4ccc(OCCN5CCOCC5)cc4)n3)[nH]2)cc1 | 5.6 (≈ 2.66 µg/mL) | 5.8 | 40 | 69 (≈ 145 µM) | 3.84 | 3.8389 | –
FC(F)(F)c1nnc2ccc(Sc3nnc(-c4ccco4)o3)nn12 | 5.6 (≈ 1.98 µg/mL) | 5.4 | 32 | 125 (≈ 353 µM) | 3.78 | 3.8715 | 4.5
Cc1ccc2oc(SCC(=O)Nc3nccs3)nc2n1 | 5.6 (≈ 1.72 µg/mL) | <4.3 | 40 | 31 (≈ 101 µM) | 3.01 | 3.0066 | –
O=C(NCCO)c1c(O)c2ncc(Cc3ccc(F)cc3C(F)(F)F)cc2[nH]c1=O | 7.5 (≈ 3.19 µg/mL) | 5.7 | > 100 | 10 (≈ 23.5 µM) | 3.74 | 3.9858 | –
COc1ccc(CCNC(=O)C2(n3cnnn3)CCCCC2)cc1 | 8 (≈ 2.64 µg/mL) | 5.7 | > 100 | ≥ 226 | 2.43 | 3.1698 | –
O=C(O)CCc1nc2ccccc2oc1=O | 8 (≈ 1.75 µg/mL) | <4.3 | > 100 | 63 (≈ 287 µM) | 0.04 | 2.3212 | –
O=C(Nc1nc(-c2ccccn2)cs1)N1CCC(Cc2ccc(F)cc2)CC1 | 10 (≈ 3.96 µg/mL) | 6.1 | 25 | 4 (≈ 10.1 µM) | 6.09 | 6.3357 | –
CCCCc1ccc(C(=O)Nc2nnc(S(=O)(=O)CCCC)s2)nc1 | 10 (≈ 3.83 µg/mL) | 5.6 | 20 | 1.5 (≈ 3.92 µM) | 6.01 | 7.3965 | –
CC(C)Oc1ccc(-c2nnc(-c3ccc4c(c3)CCNCC4)s2)cc1Cl | 10 (≈ 4 µg/mL) | 5.5 | 16 | 5 (≈ 12.5 µM) | 4.92 | 7.5923 | –
N#Cc1cc(C(F)(F)F)c2nc(C(=O)NCc3cccs3)c(Cl)n2c1 | 10 (≈ 3.85 µg/mL) | 6.1 | > 100 | 72 (≈ 187 µM) | 5.21 | 5.4382 | 5.2
CCOc1cc2ccccc2cc1C(=O)NC | 10 (≈ 2.29 µg/mL) | 5.3 | > 100 | 64 (≈ 279 µM) | 4.43 | 4.6549 | –
COc1ccc(CN2CCN(C(=O)/C=C/c3csc(C)n3)CC2)cc1 | 10 (≈ 3.57 µg/mL) | 5.7 | 80 | ≥ 116 | 4.13 | 4.1653 | –
Nc1ccc(S(=O)(=O)Nc2ccnn2-c2ccccc2)cc1 [SULFAPHENAZOLE] | 10 (≈ 3.14 µg/mL) | <4.3 | > 100 | ≥ 167 | 1.08 | 2.8435 | –
